Assay results from ChEMBL document CHEMBL1201862, “PubChem BioAssay data set” (2004).
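Values below derive from 48-hour exposures of cells grown in 96-well plates, with endpoints linearly interpolated between the two concentrations bracketing the appropriate inhibition level. GI50 = concentration required for 50% inhibition of growth.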 The source made the active and inactive calls. No stated cut-off is given here; in the data, active = GI50 up to about 1.1 µM and inactive = higher.

Assays:
Experiment in all cases: inhibition of tumour cell growth, NCI panel, 48 h
[1] = system: 786-0
[2] = system: A498
[3] = system: A549
[4] = system: ACHN
[5] = system: BT-549
[6] = system: CAKI-1
[7] = system: CCRF-CEM
[8] = system: COLO 205
[9] = system: DU-145
[10] = system: EKVX
[11] = system: HCC 2998
[12] = system: HCT-116
[13] = system: HCT-15
[14] = system: HL-60
[15] = system: HOP-92
[16] = system: HT-29
[17] = system: Hs-578T
[18] = system: IGROV-1
[19] = system: K562
[20] = system: KM12
[21] = system: LOX IMVI
[22] = system: M14
[23] = system: MCF7
[24] = system: MDA-MB-231
[25] = system: MDA-MB-435
[26] = system: MDA-N
[27] = system: MOLT-4
[28] = system: Malme-3M
[29] = system: NCI-H226
[30] = system: NCI-H23
[31] = system: NCI-H460
[32] = system: NCI/ADR-RES
[33] = system: OVCAR-3
[34] = system: OVCAR-5
[35] = system: OVCAR-8
[36] = system: PC-3
[37] = system: RXF 393
[38] = system: SF-268
[39] = system: SF-295
[40] = system: SF-539
[41] = system: SK-MEL-28
[42] = system: SK-MEL-2
[43] = system: SK-MEL-5
[44] = system: SK-OV-3
[45] = system: SN12C
[46] = system: SNB-19
[47] = system: SNB-75
[48] = system: SW-620
[49] = system: T47D
[50] = system: TK-10
[51] = system: U-251
[52] = system: UACC-257
[53] = system: UACC-62
[54] = system: UO-31
[55] = system: HOP-62
[56] = system: NCI-H522
[57] = system: OVCAR-4
[58] = system: RPMI-8226

CC(C)C1OC2(C)OC(=N)C1(C#N)C(C#N)(C#N)C2C (configuration not stated)
GI50 [1]: 19.4 µM (inactive) | GI50 [2]: 67.5 µM (inactive) | GI50 [3]: > 100 µM (inactive) | GI50 [4]: 36 µM (inactive) | GI50 [5]: 51.6 µM (inactive) | GI50 [6]: 10.9 µM (inactive) | GI50 [7]: 16 µM (inactive) | GI50 [8]: 14.5 µM (inactive) | GI50 [9]: 28.4 µM (inactive) | GI50 [10]: 18.7 µM (inactive) | GI50 [11]: 13.7 µM (inactive) | GI50 [12]: 27.2 µM (inactive) | GI50 [13]: 12.8 µM | GI50 [14]: 15.9 µM (inactive) | GI50 [15]: 17.7 µM (inactive) | GI50 [16]: 16.3 µM (inactive) | GI50 [17]: 24.3 µM (inactive) | GI50 [18]: > 10 µM (inactive) | GI50 [19]: 30 µM (inactive) | GI50 [20]: 52 µM (inactive) | GI50 [21]: 19 µM (inactive) | GI50 [22]: 14.6 µM (inactive) | GI50 [23]: 18.7 µM (inactive) | GI50 [24]: 15.4 µM (inactive) | GI50 [25]: 37.8 µM (inactive) | GI50 [26]: 15.2 µM (inactive) | GI50 [27]: 30.1 µM (inactive) | GI50 [28]: 19.6 µM (inactive) | GI50 [29]: > 100 µM (inactive) | GI50 [30]: 30.6 µM (inactive) | GI50 [31]: 15.8 µM (inactive) | GI50 [32]: 54.8 µM (inactive) | GI50 [33]: 17.7 µM (inactive) | GI50 [34]: 25.6 µM (inactive) | GI50 [35]: 25.8 µM (inactive) | GI50 [36]: 24.6 µM (inactive) | GI50 [37]: 36.2 µM (inactive) | GI50 [38]: 20.1 µM (inactive) | GI50 [39]: > 100 µM (inactive) | GI50 [40]: 24.6 µM (inactive) | GI50 [41]: 37.1 µM (inactive) | GI50 [42]: 17.6 µM (inactive) | GI50 [43]: 13.7 µM (inactive) | GI50 [44]: > 100 µM (inactive) | GI50 [45]: 13.9 µM (inactive) | GI50 [46]: > 10 µM (inactive) | GI50 [47]: 32.1 µM (inactive) | GI50 [48]: 26.6 µM (inactive) | GI50 [49]: 15 µM (inactive) | GI50 [50]: 47.1 µM (inactive) | GI50 [51]: 24.2 µM (inactive) | GI50 [52]: 28.5 µM (inactive) | GI50 [53]: 27.6 µM (inactive) | GI50 [54]: 45.7 µM (inactive)

NC(CCC(=O)O)C(=O)NC(Cc1ccc(N(CCCl)CCCl)cc1)C(=O)O (configuration not stated)
GI50 [1]: > 100 µM (inactive) | GI50 [2]: > 100 µM (inactive) | GI50 [3]: > 100 µM (inactive) | GI50 [4]: > 100 µM (inactive) | GI50 [5]: > 100 µM (inactive) | GI50 [6]: 81.8 µM (inactive) | GI50 [7]: > 100 µM (inactive) | GI50 [8]: > 100 µM (inactive) | GI50 [9]: > 100 µM (inactive) | GI50 [10]: > 100 µM (inactive) | GI50 [11]: > 100 µM (inactive) | GI50 [12]: > 100 µM (inactive) | GI50 [13]: > 100 µM | GI50 [14]: > 100 µM (inactive) | GI50 [55]: > 100 µM (inactive) | GI50 [15]: > 100 µM (inactive) | GI50 [16]: > 100 µM (inactive) | GI50 [17]: > 100 µM (inactive) | GI50 [18]: > 100 µM (inactive) | GI50 [19]: > 100 µM (inactive) | GI50 [20]: > 100 µM (inactive) | GI50 [21]: > 100 µM (inactive) | GI50 [22]: > 100 µM (inactive) | GI50 [23]: > 100 µM (inactive) | GI50 [24]: > 100 µM (inactive) | GI50 [25]: > 100 µM (inactive) | GI50 [26]: > 100 µM (inactive) | GI50 [27]: > 100 µM (inactive) | GI50 [28]: > 100 µM (inactive) | GI50 [29]: > 100 µM (inactive) | GI50 [30]: > 100 µM (inactive) | GI50 [31]: > 100 µM (inactive) | GI50 [56]: > 100 µM (inactive) | GI50 [32]: > 100 µM (inactive) | GI50 [33]: > 100 µM (inactive) | GI50 [57]: > 100 µM (inactive) | GI50 [34]: > 100 µM (inactive) | GI50 [35]: > 100 µM (inactive) | GI50 [36]: > 100 µM (inactive) | GI50 [58]: > 100 µM (inactive) | GI50 [37]: > 100 µM (inactive) | GI50 [38]: > 100 µM (inactive) | GI50 [39]: > 100 µM (inactive) | GI50 [40]: > 100 µM (inactive) | GI50 [41]: > 100 µM (inactive) | GI50 [42]: > 100 µM (inactive) | GI50 [43]: > 100 µM (inactive) | GI50 [44]: > 100 µM (inactive) | GI50 [45]: > 100 µM (inactive) | GI50 [46]: > 100 µM (inactive) | GI50 [47]: > 100 µM (inactive) | GI50 [48]: > 100 µM (inactive) | GI50 [49]: > 100 µM (inactive) | GI50 [50]: > 100 µM (inactive) | GI50 [51]: > 100 µM (inactive) | GI50 [52]: > 100 µM (inactive) | GI50 [53]: > 100 µM (inactive) | GI50 [54]: > 100 µM (inactive)
